Experiments:
[1] = tested on: strychnine-induced tonic extensive convulsion and death; conditions: for time to death induced by strychnine convulsion: 150 mg/kg (0.525 mmol/kg) and 300 mg/kg (1.05 mmol/kg) i.p. 15 min before strychnine 1.5 mg/kg; for migration to the central nervous system: evaluated indirectly from strychnine antagonism
Description: FIG. 13 Effects on the central nervous system. […] Strychnine nitrate dissolved in physiological saline was administered in the cervicodorsal hypoderm of mice (C57BL/6N; Nippon SLC; male; 10-12 week old) at a dose of 1.5 mg/kg. Subsequently, the time to death through tonic extensive convulsion was measured so that the effect on migration to the central nervous system was evaluated indirectly. Vidarabine, V2E, V3E and V5E were dissolved or suspended in physiological saline and administered intraperitoneally 15 minutes before strychnine administration (n=4-10, means±SE) (FIG. 13). Death was judged to have occurred when the thoracic respiratory movement ceased.
The migration of vidarabine, V2E, V3E and V5E to the central nervous system was evaluated by antagonism against the tonic extensive convulsion and death initiated in mice by strychnine administration. Strychnine nitrate dissolved in physiological saline was administered in the cervicodorsal hypoderm of mice (C57BL/6N; Nippon SLC; male; 10-12 week old) at a dose of 1.5 mg/kg. Subsequently, the time to death through tonic extensive convulsion was measured. Vidarabine, V2E, V3E and V5E were dissolved or suspended in physiological saline and administered intraperitoneally 15 minutes before strychnine administration.

[2] = tested on: adenylyl cyclase activity in the striatum (type 5 adenylyl cyclase); assay: Membrane adenylyl cyclase assay, WT striatal membrane, forskolin-stimulated; type: biochemical, mouse; conditions: 10 μM; WT; striatum vs lung
Description: (§1) FIG. 2 Inhibitory effects of various compounds on adenylyl cyclase activity in mouse striatum. The striatum is part of the brain. Here, it is known that type 5 adenylyl cyclase occupies almost all of the enzyme activity. […] Relative values are shown with adenylyl cyclase activity in the presence of 50 μM forskolin but in the absence of inhibitors being taken as 100 (n=4, means±S.E.).
(§2) <Membrane Adenylyl Cyclase Assay>
(§3) Striatal, cardiac and pulmonary tissues were removed from WT (C57BL) (Charles River Laboratories Japan, Inc.) and AC5KO (Circ. Res. 93: 364-371, 2003), both of which were 12-15 weeks of age after birth, and individual membrane protein fractions were prepared therefrom. The resultant membrane preparations were incubated with a reaction mixture (20 mM HEPES, pH 8, 5 mM MgCl2, 0.5 mM EDTA, pH 8, 0.1 mM ATP, 1 mM phospho creatine, 8 U/mL creatine phosphor kinase, 200 μM IBMX) at 30° C. in the presence of forskolin (an activator of adenylyl cyclase) (50 μM, Sigma Cat. No. F6886) and various compounds, to thereby allow production of cAMP. In this assay, striatum- or lung-derived membrane preparations were used in an amount of 1 μg, and heart-derived membrane preparation was used in an amount of 2 μg. 15 minutes (striatum and lung) or 30 minutes (heart) after its start, the reaction was terminated by adding trichloroacetate (TCA) solution to give a final concentration of 5%. Then, the protein was precipitated by centrifugation (13,500×g, 10 min).
(§4) In both membrane adenylyl cyclase assay and cAMP accumulation assay, the amount of cAMP contained in TCA solution was determined by radioimmunoassay using […].

[3] = target: T1, adenylyl cyclase activity in the striatum (type 5 adenylyl cyclase) (Mus musculus, UniProt P84309); assay: as above; type: biochemical; conditions: 100 μM compound; 50 μM forskolin; WT striatal membrane; read-out: forskolin-stimulated adenylyl cyclase activity (relative to activity without inhibitor = 100)
T1 construct: IC50 on adenylyl cyclase activity in the striatum; other: WT; estimated from 10, 50 and 100 μM; other: 100 μM compound
Description: as §1, §2, §3, §4

[4] = target: T2, adenylyl cyclase activity in the heart; assay: Membrane adenylyl cyclase assay, WT heart membrane, forskolin-stimulated; type: biochemical, mouse; conditions: WT; estimated from 10, 50 and 100 μM; 50 μM forskolin
T2 construct: IC50 on adenylyl cyclase activity in the heart; other: WT; estimated from 10, 50 and 100 μM
Description: (§5) FIG. 3 Inhibitory effects of individual vidarabine derivatives on adenylyl cyclase activity in the striatum, heart and lung. With adenylyl cyclase activity in the presence of […] but in the absence of inhibitors being taken as 100, the reductions in adenylyl cyclase activity upon treatment with various inhibitors at the concentrations indicated on the horizontal axis are shown (n=4, means±S.E.).
as §2, §3, §4

[5] = tested on: adenylyl cyclase activity in the heart; assay: as above; type: biochemical, mouse; conditions: 10 μM; wild-type mouse; heart vs lung
Description: as §5, §2, §3, §4

[6] = Water solubility / hydrophilicity (stock solutions in pure water); type: physicochemical; conditions: in words
Description: The thus synthesized position 2-substituted derivative (V2E), position 3-substituted derivative (V3E) and position 5-substituted derivative (V5E) were dissolved in pure water to give a concentration of 10 mM, to thereby prepare stock solutions. Vidarabine was dissolved in 100% dimethylsulfoxide to thereby prepare a 10 mM stock solution.
The newly synthesized three vidarabine derivatives (FIG. 1) were dissolved in pure water to thereby prepare 10 mM stock solutions. Since vidarabine infusion of about 2 mM is used in clinical scenes as an antiherpes therapeutic (Arasena-A for intravenous infusion; Mochida Pharmaceutical Co., Ltd.), it was possible to prepare solutions at concentrations about 5 times higher than that of the infusion. In the present study, vidarabine was dissolved in 100% DMSO to prepare a 10 mM stock solution.

[7] = tested on: cardiac myocytes in myocardial tissues; assay: TUNEL staining of myocardial tissues of chronic catecholamine-loaded mice; type: in vivo, mouse; conditions: mice of the chronic isoproterenol loading experiment
Description: FIG. 12 TUNEL stain of myocardial tissues. Apoptosis positive cardiac myocytes in the hearts of mice used in chronic catecholamine loading experiment (FIG. 9) were evaluated by TUNEL staining (n=4-6, means±SE).
<TUNEL Staining of Myocardial Tissues>
Apoptosis positive cells of the mice used in the chronic catecholamine loading experiment were evaluated by TUNEL staining.

[8] = vidarabine, background statement; cited from earlier work

T1 sequence (P84309 whole entry): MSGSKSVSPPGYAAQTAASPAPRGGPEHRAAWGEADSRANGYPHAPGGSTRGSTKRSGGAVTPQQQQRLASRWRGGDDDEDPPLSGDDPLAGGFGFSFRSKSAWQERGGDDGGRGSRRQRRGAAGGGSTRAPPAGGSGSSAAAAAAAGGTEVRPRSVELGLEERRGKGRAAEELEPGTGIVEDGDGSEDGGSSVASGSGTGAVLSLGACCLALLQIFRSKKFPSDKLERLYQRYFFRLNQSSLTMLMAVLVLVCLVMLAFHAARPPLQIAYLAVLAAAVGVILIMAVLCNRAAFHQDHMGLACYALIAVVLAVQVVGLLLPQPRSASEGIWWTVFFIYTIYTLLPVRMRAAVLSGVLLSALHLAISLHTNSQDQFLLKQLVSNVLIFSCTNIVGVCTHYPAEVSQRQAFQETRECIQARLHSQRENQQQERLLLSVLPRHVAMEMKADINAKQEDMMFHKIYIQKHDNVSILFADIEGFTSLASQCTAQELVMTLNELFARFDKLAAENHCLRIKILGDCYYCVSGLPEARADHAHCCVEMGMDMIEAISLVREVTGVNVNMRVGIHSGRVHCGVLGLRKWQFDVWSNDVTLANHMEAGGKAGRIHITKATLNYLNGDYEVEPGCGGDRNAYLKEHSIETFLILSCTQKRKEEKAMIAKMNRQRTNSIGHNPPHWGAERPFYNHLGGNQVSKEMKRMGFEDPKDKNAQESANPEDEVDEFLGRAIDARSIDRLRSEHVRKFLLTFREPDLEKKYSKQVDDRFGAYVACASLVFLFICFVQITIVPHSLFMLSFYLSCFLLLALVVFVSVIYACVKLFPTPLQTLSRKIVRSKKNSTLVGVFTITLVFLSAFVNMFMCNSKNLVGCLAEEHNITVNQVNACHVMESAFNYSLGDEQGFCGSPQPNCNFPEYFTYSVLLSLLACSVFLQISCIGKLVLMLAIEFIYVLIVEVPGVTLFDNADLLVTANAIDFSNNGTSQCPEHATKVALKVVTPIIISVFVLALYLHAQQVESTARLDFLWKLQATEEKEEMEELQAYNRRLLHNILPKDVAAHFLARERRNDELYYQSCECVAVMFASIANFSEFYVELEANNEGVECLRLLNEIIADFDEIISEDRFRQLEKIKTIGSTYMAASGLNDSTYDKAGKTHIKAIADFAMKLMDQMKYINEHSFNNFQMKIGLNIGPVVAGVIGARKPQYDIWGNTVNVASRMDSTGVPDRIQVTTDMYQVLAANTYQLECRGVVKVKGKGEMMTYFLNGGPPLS

## CN(C)CC(=O)OC1C(O)C(CO)OC1n1cnc2c(N)ncnc21 (centres unmarked) [V2E, 2-O—(N,N-Dimethylglycyl)Vidarabine]
[1]
  time to death induced by strychnine convulsion: did not prolong
  migration to the central nervous system: extremely low
[2]
  inhibition of adenylyl cyclase activity in striatum relative to lung (tissue specificity): about 3.0 fold
[3]
  activity at 100 µM: ~24.5%
[4]
  IC50: 17.8 µM
[5]
  inhibition of adenylyl cyclase activity in heart relative to lung (tissue specificity): about 2.6 fold
[6]
  hydrophilicity: highly hydrophilic
[7]
  apoptosis of cardiac myocytes induced by chronic catecholamine stimulation (TUNEL, myocardial tissue): equally inhibited

## Nc1ncnc2c1ncn2[C@@H]1O[C@H](CO)[C@@H](O)[C@@H]1O [vidarabine, reference compound]
[1]
  time to death induced by strychnine convulsion: significantly prolonged
[2]
  inhibition of adenylyl cyclase activity in striatum relative to lung (tissue specificity): about 2.8 fold
[3]
  activity at 100 µM: ~17.3%
[4]
  IC50: 7.7 µM
[5]
  inhibition of adenylyl cyclase activity in heart relative to lung (tissue specificity): about 2.4 fold
[8]
  water solubility: poor
[7]
  apoptosis of cardiac myocytes induced by chronic catecholamine stimulation (TUNEL, myocardial tissue): equally inhibited

## CN(C)CC(=O)OCC1OC(n2cnc3c(N)ncnc32)C(O)C1O (centres unmarked) [V5E, 5-O—(N,N-Dimethylglycyl)Vidarabine]
[1]
  time to death induced by strychnine convulsion: did not prolong
  migration to the central nervous system: extremely low
[3]
  activity at 100 µM: ~24.9%
[4]
  IC50: 42.9 µM

## CN(C)CC(=O)OC1C(CO)OC(n2cnc3c(N)ncnc32)C1O (centres unmarked) [V3E, 3-O—(N,N-Dimethylglycyl)Vidarabine]
[1]
  time to death induced by strychnine convulsion: did not prolong
  migration to the central nervous system: extremely low
[3]
  activity at 100 µM: ~25.1%
[4]
  IC50: 19.9 µM
